Test [1] deals with Glomerella cingulate QDAU-12. The test can be described thus: Antimicrobial 96-well microtiter plate assay, G. cingulate. Particulars: amphotericin B as positive control. It is filed as cell-based.
The subject of test [2] is Bipolaris sorokiniana QDAU-5. Description: Antimicrobial 96-well microtiter plate assay, B. sorokiniana. In kind it is cell-based.
Test [3] has as its system Pseudomonas aeruginosa QDIO-4. Description: Antimicrobial 96-well microtiter plate assay, P. aeruginosa. It is filed as cell-based. Particulars: amphotericin B as positive control (as footnoted).
Test [4] relates to F. oxysporum f. sp. cucumerinum QDAU-8. Description: Antimicrobial 96-well microtiter plate assay, F. oxysporum f. sp. cucumerinum. In kind it is cell-based, Fusarium oxysporum f. sp. cucumerinum. The settings on record: amphotericin B as positive control.
In a further test the test system is Escherichia coli EMBLC-1. The test can be described thus: Antimicrobial 96-well microtiter plate assay, E. coli. It is filed as cell-based.
In test [5] the test system is Staphylococcus aureus EMBLC-2. Description: Antimicrobial 96-well microtiter plate assay, S. aureus. In kind it is cell-based.
The subject of the next test is E. tarda QDIO-2. Description: Antimicrobial 96-well microtiter plate assay, E. tarda. It is filed as cell-based, Edwardsiella tarda.
Test [6] concerns Edwardsiella ictarda QDIO-9. The test can be described thus: Antimicrobial 96-well microtiter plate assay, E. ictarda. Particulars: chloramphenicol as positive control. In kind it is cell-based.
Where [7] appears, read: Bipolaris sorokiniana, QDAU5, amphotericin B as positive control, read-out: MIC.
Where [8] appears, read: Pseudomonas aeruginosa, QDIO4, P. aeruginosa, read-out: MIC.
[9] abbreviates: Fusarium oxysporum, read-out: MIC.
The mark [10] stands for this setting: Escherichia coli, EMBLC1, chloramphenicol as positive control, read-out: MIC.
The mark [11] stands for this setting: Staphylococcus aureus, EMBLC2, chloramphenicol as positive control, read-out: MIC.
Where [12] appears, read: Edwardsiella tarda, QDIO2, chloramphenicol as positive control, read-out: MIC.
Setting [13] is: Edwardsiella, QDIO9, E. ictarda, read-out: MIC.
Where [14] appears, read: chloramphenicol as positive control.

The structures appear in SMILES notation. Values after ≈ are worked out from the molar mass of the structure shown. Like-named read-outs stand apart in the source and are kept apart here. A value given as a limit tells only on which side of the number the result lay.

What is called MIC is the lowest concentration that inhibits growth of the organism. Turning to `C[C@@H]1[C@H](O)[C@@H](C)/C=C/C=C/C=C/C=C/C=C/C=C/C=C/[C@H](O[C@@H]2O[C@H](C)[C@@H](O)[C@H](N)[C@@H]2O)C[C@@H]2O[C@](O)(C[C@@H](O)C[C@@H](O)[C@H](O)CC[C@@H](O)C[C@@H](O)CC(=O)O[C@H]1C)C[C@H](O)[C@H]2C(=O)O` [Amphotericin B, reference compound], the MIC in test [1] (read-out: MIC) was 0.5 µg/mL (≈ 0.541 µM); in test [2] (setting [7]), 0.5 µg/mL (≈ 0.541 µM); in test [3] (setting [8]), 2 µg/mL (≈ 2.16 µM); in test [4] (setting [9]), 0.5 µg/mL (≈ 0.541 µM).

Regarding `O=C(N[C@H](CO)[C@H](O)c1ccc([N+](=O)[O-])cc1)C(Cl)Cl` [Chloramphenicol, reference compound], the MIC in the test on Escherichia coli EMBLC-1 (setting [10]) is 2 µg/mL (≈ 6.19 µM); in test [5] (setting [11]), 1 µg/mL (≈ 3.09 µM); with E. tarda QDIO-2 (setting [12]) it was 0.5 µg/mL (≈ 1.55 µM); in test [6] (setting [13]) it was 0.5 µg/mL (≈ 1.55 µM).

As to `CC1CC=CCCC(O)CCCC(=O)O1` (stereo not drawn) [Compound 1, 5R-hydroxyrecifeiolide], the MIC is above 64 µg/mL with Escherichia coli EMBLC-1 (setting [10]); above 64 µg/mL in test [5] (setting [11]); above 64 µg/mL in the test on E. tarda QDIO-2 (setting [12]); 32 µg/mL (≈ 151 µM) in test [6] (setting [13]); “– ((–) = MIC > 64 μg/mL)” in test [1]; above 64 µg/mL in test [2] (setting [7]). For the same compound, the figures for the MIC in test [3] (setting [8]) and in test [4] (setting [9]) were 32 µg/mL (≈ 151 µM) and above 64 µg/mL, respectively.

`CC1CC=CCCC(O)CCCC(=O)O1` (stereo not drawn) [Compound 2, 5S-hydroxyrecifeiolide]: the minimal inhibitory concentration (MIC) entry was “– ((–) = MIC > 64 μg/mL)” in the test on Escherichia coli EMBLC-1 (setting [14]); “– ((–) = MIC > 64 μg/mL)” in test [5] (setting [14]); “– ((–) = MIC > 64 μg/mL)” against E. tarda QDIO-2 (setting [14]); “– ((–) = MIC > 64 μg/mL)” in test [6] (E. ictarda); 16 µg/mL (≈ 75.4 µM) in test [1]; “– ((–) = MIC > 64 μg/mL)” in test [2] (amphotericin B as positive control). The MIC result in test [3] (P. aeruginosa) and in test [4] was “– ((–) = MIC > 64 μg/mL)” each time.

In the case of `CC(O)CCCCCCC1OC(=O)CC1O` (stereo not drawn) [Compound 3, ent-cladospolide F], the MIC in the test with Escherichia coli EMBLC-1 (setting [10]) is above 64 µg/mL; in test [5] (setting [11]), 8 µg/mL (≈ 34.7 µM); in the test on E. tarda QDIO-2 (setting [12]), above 64 µg/mL; in test [6] (setting [13]), 16 µg/mL (≈ 69.5 µM); in test [1] (read-out: MIC), above 64 µg/mL; in test [2] (setting [7]), above 64 µg/mL. Besides, the minimal inhibitory concentration (MIC) is 64 µg/mL (≈ 278 µM) in test [3] (setting [8]) and above 64 µg/mL in test [4] (setting [9]).

Turning to `CC(=O)OC(C)CCCCCCC1OC(=O)CC1O` (centres unmarked) [Compound 4, cladospolide G], the MIC is 32 µg/mL (≈ 117 µM) in the test on Escherichia coli EMBLC-1 (setting [10]); above 64 µg/mL in test [5] (setting [11]); above 64 µg/mL in the test with E. tarda QDIO-2 (setting [12]); above 64 µg/mL in test [6] (setting [13]); 1 µg/mL (≈ 3.67 µM) in test [1] (read-out: MIC); 32 µg/mL (≈ 117 µM) in test [2] (setting [7]). Also, the figures for the minimum inhibitory concentration (MIC) in test [3] (setting [8]) and in test [4] (setting [9]) were above 64 µg/mL and 1 µg/mL (≈ 3.67 µM), respectively.

In the case of `CC(O)CCCCCC(O)C1C=CC(=O)O1` (centres unmarked) [Compound 6, iso-cladospolide B], the minimum inhibitory concentration (MIC) is 32 µg/mL (≈ 140 µM) in the test with Escherichia coli EMBLC-1 (setting [10]); above 64 µg/mL in test [5] (setting [11]); 32 µg/mL (≈ 140 µM) in the test with E. tarda QDIO-2 (setting [12]); 16 µg/mL (≈ 70.1 µM) in test [6] (setting [13]); 64 µg/mL (≈ 280 µM) in test [1] (read-out: MIC); above 64 µg/mL in test [2] (setting [7]). Further, the MIC in test [3] (setting [8]) and in test [4] (setting [9]) was above 64 µg/mL each time.

`C[C@H]1CCCCC[C@H](O)C(=O)[C@H](O)CC(=O)O1` [Compound 7, pandangolide 1]: the minimum inhibitory concentration (MIC) in the test with Escherichia coli EMBLC-1 (setting [10]) was above 64 µg/mL; in test [5] (setting [11]), 32 µg/mL (≈ 131 µM); with E. tarda QDIO-2 (setting [12]), above 64 µg/mL; in test [6] (setting [13]), 4 µg/mL (≈ 16.4 µM); in test [1] (read-out: MIC), 1 µg/mL (≈ 4.09 µM); in test [2] (setting [7]), above 64 µg/mL. Besides, the minimal inhibitory concentration (MIC) was 32 µg/mL (≈ 131 µM) in test [3] (setting [8]) and above 64 µg/mL in test [4] (setting [9]).

These data come from paper PMC6563031, “Polyketides from the Mangrove-Derived Endophytic Fungus Cladosporium cladosporioides” (Marine Drugs, 2019).
